Tests used:
Grass (mixed types) = assay: Field trial of formulation components, kill rate 1 year after application (TABLE 2, Jun. 14, 2005, near Warren Pa.); format: in vivo; details: no herbicide; single component at % weight: Ethylene Glycol 0.07, 5 Mol Borax 0.044, Boric Acid 0.037, Barlox 12 0.305
Procedure: (§1) On Jun. 14, 2005, further trials were conducted near Warren Pa., USA to evaluate the contribution of certain formulation components to herbicide performance from the Jun. 2, 2004 Buffered Amine Oxide system. The same field trial methods were used. The control was distilled water.
(§2) The two herbicides which were tested were 2,4-D and Glyphosate. They were used in concentrations of 50:1 and 200:1. The vegetations tested were raspberry and grass. The components of the various elements employed in the buffered amine oxide formula are expressed in weight percent of the total buffered amine oxide formula. […] The first three components were tested at 200:1 strength with the Ethylene Glycol used alone, the Ethylene Glycol used in combination with 5 Mol Borax and Ethylene Glycol, 5 Mol Borax and Boric Acid used in combination. None of these killed the weeds.
(§3) Where a “0” appears in a block in TABLE 2, this means there were no kills. Where a block is blank, this means that no measurement was taken.

Raspberry = assay: as above; format: in vivo; details: no herbicide; single component at % weight: Ethylene Glycol 0.07, 5 Mol Borax 0.044, Boric Acid 0.037, Barlox 12 0.305
Procedure: as §1, §2, §3

O.O.O.O.O.[Na+].[Na+].[O-]B1OB2OB([O-])OB(O1)O2 [5 Mol Borax]
Kill Rate % 1 Year After Application, Grass (Grass (mixed types)): 0%
Kill Rate % 1 Year After Application, Raspberry (Raspberry): 0%

OB(O)O [Boric Acid]
Kill Rate % 1 Year After Application, Grass (Grass (mixed types)): 0%
Kill Rate % 1 Year After Application, Raspberry (Raspberry): 0%

OCCO [Ethylene Glycol]
Kill Rate % 1 Year After Application, Grass (Grass (mixed types)): 0%
Kill Rate % 1 Year After Application, Raspberry (Raspberry): 0%

— patent publication US10383336B2, “Solutions employing herbicides and buffered amine oxides to kill weeds and related methods” (priority 2015, dated 2019)
